The text below walks through data of patent publication US9518015B2, “EP1 receptor ligands” (LABORATORIOS DEL DR. ESTEVE, S.A., priority 2011, dated 2016).

The target of experiment [1] is T1, human EP1 receptor (Homo sapiens, UniProt P34995).
T1 sequence (P34995 1-402): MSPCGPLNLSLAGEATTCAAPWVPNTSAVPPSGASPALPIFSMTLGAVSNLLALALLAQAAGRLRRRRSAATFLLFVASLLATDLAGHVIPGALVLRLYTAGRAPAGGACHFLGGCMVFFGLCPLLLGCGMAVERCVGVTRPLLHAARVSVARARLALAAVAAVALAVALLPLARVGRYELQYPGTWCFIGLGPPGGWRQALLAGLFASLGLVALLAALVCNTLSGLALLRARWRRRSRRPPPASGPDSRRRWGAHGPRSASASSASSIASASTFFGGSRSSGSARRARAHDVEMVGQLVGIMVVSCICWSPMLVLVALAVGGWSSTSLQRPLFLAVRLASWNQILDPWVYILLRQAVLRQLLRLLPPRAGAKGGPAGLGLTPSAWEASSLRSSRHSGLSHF
In words: Test 3: Measurement of IP1 responses by HTRF, HEK-293 cells stably expressing human EP1 receptors incubated o/n, PGE2 10 nM. It counts as cell-based. The arrangement: expressed in transfected cells. The conditions noted are these: for inhibition at 10 µM: HEK293, read-out: Results of Test 3 (Functional assay), % inh; for Results of Test 3 (Functional assay), % inh: at 10 μM. Here is the method: Test 3: Measurement of IP1 Responses by Homogeneous Time Resolved Fluorescence
IP1 measurements on HEK-293 cells that stably expressed human EP1 receptors were performed by using a system based on Homogeneous Time Resolved Fluorescense (HTRF) (Gabriel et al., 2003). This technology allows the direct measurement of IP1 in living cells. The principle of this assay is based on competition between IP1 produced by cells and IP1-d2 conjugate for the binding with monoclonal anti-IP1-cryptate conjugate. The HTRF IP1 kit from CisBio was used according to the manufacturer's directions. The experimental procedure was performed as stated below.
40,000 cells per well were added to 96-well culture plates in 40 μl of Optimem and incubated o/n at 37° C. Optimem was replaced by 40 μl of stimulation buffer (supplied by the kit) and compounds were then added in 20 μl of stimulation buffer and incubated at 37° C. for 15 minutes followed by 10 μl of PGE2 to a final concentration of 10 nM. After 90 minutes at 37° C., the reaction was stopped lysing the cells with a mixture of 15 μl of cryptate and 15 μl of IP1-d2 prepared in the lysis buffer supplied by the manufacturer. Plates were incubated for an additional hour at room temperature and read at 665 nm/620 nm using an UltraEvolution Plate reader (Tecan).
Antagonist percentage inhibition was calculated relating compounds activity to the 0% inhibition of the wells incubated with 10 nM PGE2 alone and 100% inhibition of the wells incubated with 10 nM PGE2 plus 10 μM of the reference antagonist.
A general note: TR-FRET usually uses a lanthanide donor and a delayed reading to cut background.

Experiment [2] addresses T1, human EP1 receptor. In words: Test 1: Human EP1 receptor radioligand binding assay ([3H]-PGE2, transfected HEK-293 cell membranes). The arrangement: expressed in transfected cells; host or cells: HEK-293 cell membranes. The following applies: for inhibition at 10 µM: read-out: Results of Test 1 (Binding assay), % inh; for Results of Test 1 (Binding assay), % inh: at 10 μM. Summed up: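 Membranes from transfected HEK-293 cells (30 μg protein) incubated with 10 nM [3H]-PGE2 in pH 6.0 MES buffer for 60 min at 25° C., then filtered and counted by scintillation. Percent inhibition set against total binding and 10 μM PGE2 non-specific binding.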

Structures are written as SMILES. Structures can show the parent of a compound that is named as a salt.

In the case of `CC(C)COc1ccc(F)cc1CN1CCc2c(C(=O)O)cccc21` [Example 170], the inhibition at 10 µM on human EP1 receptor [1] and on human EP1 receptor [2] was over 75% throughout.
Take `CC(C)COc1ccc(Cl)cc1CN1CCCc2c(C(=O)O)cccc21` [Example 175]: the inhibition at 10 µM on human EP1 receptor [1] and at human EP1 receptor [2] was over 75% throughout.
In the case of `CC(C)(F)COc1ccc(Cl)cc1CN1CCCc2c(C(=O)O)cccc21` [Example 177], the inhibition at 10 µM on human EP1 receptor [1] and at human EP1 receptor [2] was over 75% throughout.
`O=C(O)c1cccc2c1CCCN2Cc1cc(Cl)ccc1OC1CCC1` [Example 178]: the inhibition at 10 µM on human EP1 receptor [1] and on human EP1 receptor [2] was over 75% throughout.
On to `C=C(CF)COc1ccc(Cl)cc1CN1CCCc2c(C(=O)O)cccc21` [Example 182], for which the inhibition at 10 µM at human EP1 receptor [1] and at human EP1 receptor [2] was over 75% throughout.
For the molecule `O=C(O)c1cccc2c1c(CO)nn2Cc1cc(Cl)ccc1OCc1ccc(Cl)cc1F` [Example 188, sodium 1-(5-chloro-2-((4-chloro-2-fluorobenzyl)oxy)benzyl)-3-(hydroxymethyl)-1H-indazole-4-carboxylate], the inhibition at 10 µM at human EP1 receptor [1] and at human EP1 receptor [2] was over 75% in each case.
Regarding `Cc1ccc(OCc2ccc(Cl)cc2F)c(CN2CCOc3c(C(=O)O)cccc32)c1` [Example 194], the inhibition at 10 µM on human EP1 receptor [1] and at human EP1 receptor [2] was over 75% throughout.
Turning to `CC(C)COc1ccc(F)cc1CN1CCOc2c(C(=O)O)cccc21` [Example 195], the inhibition at 10 µM on human EP1 receptor [1] and at human EP1 receptor [2] was over 75% in each case.
As to `CC(C)COc1ccc(Cl)cc1CN1CCOc2c(C(=O)O)cccc21` [Example 196], the inhibition at 10 µM on human EP1 receptor [1] and on human EP1 receptor [2] was over 75% each time.
With `O=C(O)c1cccc2c1OCCN2Cc1cc(Cl)ccc1OC1CCC1` [Example 197], the inhibition at 10 µM on human EP1 receptor [1] and at human EP1 receptor [2] was over 75% in each case.
As for `COCc1cn(Cc2cc(Cl)ccc2OCc2ccc(Cl)cc2F)c2cccc(C(=O)O)c12` [Example 207, Sodium 1-(5-chloro-2-(4-chloro-2-fluorobenzyloxy)benzyl)-3-(methoxymethyl)-1H-indole-4-carboxylate], the inhibition at 10 µM at human EP1 receptor [1] and at human EP1 receptor [2] was over 75% each time.
With `O=C(O)c1cccc2c1CC(=O)N2Cc1cc(Cl)ccc1OCc1ccc(Cl)cc1F` [Example 208, sodium 1-(5-chloro-2-(4-chloro-2-fluorobenzyloxy)benzyl)-2-oxoindoline-4-carboxylate], the inhibition at 10 µM at human EP1 receptor [1] and at human EP1 receptor [2] was over 75% in each case.
For the molecule `O=C(O)c1ccnc2c1cnn2Cc1cc(Cl)ccc1OCc1ccc(Cl)cc1F` [Example 212, sodium 1-{5-chloro-2-[(4-chloro-2-fluorobenzyl)oxy]benzyl}-1H-pyrazolo[3,4-b]pyridine-4-carboxylate], the inhibition at 10 µM at human EP1 receptor [1] and at human EP1 receptor [2] was over 75% throughout.
Take `O=C(O)c1ccnc2c1CCN2Cc1cc(Cl)ccc1OCc1ccc(Cl)cc1F` [Example 216, sodium 1-{5-chloro-2-[(4-chloro-2-fluorobenzyl)oxy]benzyl}-2,3-dihydro-1H-pyrrolo[2,3-b]pyridine-4-carboxylate]: the inhibition at 10 µM at human EP1 receptor [1] and at human EP1 receptor [2] was over 75% each time.
In the case of `O=C([O-])c1ccnc2c1CCN2Cc1cc(Cl)ccc1OCc1ccc(F)cc1F.[Na+]` [Example 217], the “Results of Test 3 (Functional assay), % inh” value on human EP1 receptor [1] is given as “$ (% inh > 75)”. Further, at human EP1 receptor [2], the “Results of Test 1 (Binding assay), % inh” value is given as “# (% inh > 75)”.
The matching figures for `O=C([O-])c1ccnc2c1CCN2Cc1cc(Cl)ccc1OCc1ccc(F)cc1.[Na+]` [Example 220]: “$ (% inh > 75)” and “# (% inh > 75)”.
With `CC(C)(F)COc1ccc(Cl)cc1CN1CCc2c(C(=O)[O-])ccnc21.[Na+]` [Example 221], the “Results of Test 3 (Functional assay), % inh” value on human EP1 receptor [1] was “$ (% inh > 75)”. The “Results of Test 1 (Binding assay), % inh” value at human EP1 receptor [2] is “# (% inh > 75)”.
Turning to `O=C(O)c1cncc2c1CCCN2Cc1cc(Cl)ccc1OCc1ccc(Cl)cc1F` [Example 226, Sodium 1-{5-chloro-2-[(4-chloro-2-fluorobenzyl)oxy]benzyl}-1,2,3,4-tetrahydro-1,7-naphthyridine-5-carboxylate], the inhibition at 10 µM on human EP1 receptor [1] and at human EP1 receptor [2] was over 75% each time.
Consider `O=C(O)c1cncc2c1CCCN2Cc1cc(Cl)ccc1OCc1ccc(F)cc1F` [Example 227], for which the inhibition at 10 µM on human EP1 receptor [1] and at human EP1 receptor [2] was over 75% in each case.
Turning to `CC(C)COc1ccc(Cl)cc1CN1CCc2c(C(=O)NS(C)(=O)=O)ccnc21` [Example 234, 1-(5-chloro-2-isobutoxybenzyl)-N-(methylsulfonyl)-2,3-dihydro-1H-pyrrolo[2,3-b]pyridine-4-carboxamide sodium salt], the inhibition at 10 µM at human EP1 receptor [1] and on human EP1 receptor [2] was over 75% throughout.
For `CN(C)S(=O)(=O)NC(=O)c1cccc2c1CCCN2Cc1cc(Cl)ccc1OCc1ccc(Cl)cc1F` [Example 237, 1-{5-chloro-2-[(4-chloro-2-fluorobenzyl)oxy]benzyl}-N-[(dimethylamino)sulfonyl]-1,2,3,4-tetrahydroquinoline-5-carboxamide sodium salt], the inhibition at 10 µM was 45 to 75% at human EP1 receptor [1] and over 75% at human EP1 receptor [2].
For `O=C(O)c1cncc2c1CCCN2Cc1ccccc1OCc1ccc(Cl)cc1F` [Example 240] the same measures were over 75% and over 75%.
For `CC(C)(F)COc1ccc(Cl)cc1CN1CCCc2c(C(=O)O)cncc21` [Example 242] the same measures were over 75% and over 75%.
For the molecule `O=C(O)c1cncc2c1CCCN2Cc1cc(F)ccc1OCc1ccc(F)cc1F` [Example 243], the inhibition at 10 µM at human EP1 receptor [1] and at human EP1 receptor [2] was over 75% in each case.
As to `O=C(O)c1cncc2c1CCN2Cc1cc(Cl)ccc1OCc1ccc(Cl)cc1F` [Example 248, sodium 1-{5-chloro-2-[(4-chloro-2-fluorobenzyl)oxy]benzyl}-2,3-dihydro-1H-pyrrolo[2,3-c]pyridine-4-carboxylate], the inhibition at 10 µM at human EP1 receptor [1] and at human EP1 receptor [2] was over 75% each time.
